How the values were obtained:
[1] = system: peripheral blood mononuclear cells (PBMCs); assay: Extracellular acidification rate (ECAR, a measure of glycolysis) in activated PBMCs, Seahorse XF; format: cell-based, human; conditions: 250 μM, 4 hr, PBMCs stimulated with anti-CD3 and anti-CD28 antibodies
Description: PBMCs (1.5×10^6) obtained from a healthy human adult donor were unstimulated or stimulated with anti-CD3 and anti-CD28 antibodies (1 μg/mL each) to induce T-cell activation, in the absence or presence of 250 μM NRH for 4 hr. The cells were then washed and plated on poly-D-lysine-coated Seahorse XF microplates at a density of 3×10^5 cells per well (5 replicates). The plates were centrifuged briefly and incubated at 37° C. in a non-CO2 incubator for 30 min to settle the cells in the bottom of the plate. Extracellular acidification rate (ECAR, a measure of glycolysis) and oxygen consumption rate (OCR, a measure of oxidative phosphorylation) were determined using a Seahorse XF cell mito stress test kit and a Seahorse Xfe96 analyzer (Agilent Technologies, Santa Clara, California) under basal condition or in response to 1.0 μM oligomycin (an inhibitor of ATP synthase), 1.5 μM carbonyl cyanide-p-trifluoromethoxyphenylhydrazone (FCCP, a mitochondrial uncoupler), 0.5 μM rotenone (an inhibitor of electron transport at complex I) and antimycin A (an inhibitor of electron transport at cytochrome c reductase). PBMCs include monocytes and lymphocytes including T cells, B cells and natural killer cells.

[2] = Stability in human serum in vitro (absorbance over time); format: in vitro ADME; conditions: 100 μM, 37° C.
Description: Three blood samples were collected from healthy human donors with the same blood group in serum separator vacutainer gel tubes. The samples were centrifuged at 1,800 g to separate serum. The serum samples obtained were pooled together into a separate tube.
NR, NRH and NRH-triacetate (NRHTA) were initially dissolved in DMSO and then diluted with normal saline to obtain a 1 mM stock solution of each compound. 100 μL of stock solution was added to 900 μL of pooled serum to assess the stability of the test compound in human serum. 200 μL of saline with 1,800 μL of pooled serum was used to prepare a solution for blanking and as a reference measurement. The stock solutions were diluted in the pooled serum and normal saline to prepare 100 μM solutions of the test compounds.
In previous experiments, spectral scans between 190 nm and 1100 nm were performed to determine absorbance maxima for NR, NRH and NRHTA, which have maximal absorbance at 265 nm, 340 nm and 331 nm, respectively, in solution.
The stability of a test compound in human serum was determined by a change in the concentration of the compound as measured by a change in absorbance at the maximal absorbance wavelength for the compound as a function of time. The test compounds at 100 μM were incubated in human serum at 37° C. Absorbance measurements were made at 0 min (T0), 5 min, 30 min, 120 min, 240 min, 360 min and 1440 min (24 hr). The relative change in absorbance compared to T0 was plotted and used for statistical analysis. The analysis was performed in triplicates.

HEK293 cells = assay: NADH/NAD+ ratio in H2O2-exposed HEK293 cells (NAD/NADH-Glo); format: cell-based; conditions: NRH at 100 and 1000 μM, NR at all tested concentrations (0.01-1000 μM)
Description: HEK293 cells were trypsinized and plated at a density of 60,000 cells per well. The cells were then treated with H2O2 (600 μM prepared with Dulbecco's Modified Eagle Medium [DMEM]) for 30 min. The media was then replaced with serum media (DMEM supplemented with 10% fetal bovine serum [FBS]) containing NRH or NR, and were incubated at 37° C. under 6% CO2 for 30 min or 6 hr. The cells were incubated with the following concentrations of NRH or NR: 0.01, 0.1, 1.0, 10, 100 and 1000 μM. NAD^+ and NADH levels at 30 min and 6 hr were estimated using the NAD/NADH-Glo Promega Bioluminescent assay. The results were expressed as fold change relative to the values obtained with untreated cells.

red blood cells (RBCs) = assay: H2O2-induced hemolysis in vitro; format: cell-based; conditions: 2000, 200 and 20 μM, pre-incubation 1 hr at 37° C., then H2O2 4 hr
Description: Individual test compounds were dissolved in 0.9% normal saline to prepare 0.3 M stock solutions. A 0.3 M stock solution was added to a 20% suspension of washed red blood cells (RBCs) in saline to obtain final concentrations of 2000 μM, 200 μM and 20 μM of the compound. The RBC suspensions were incubated with the test compound at 37° C. for 1 hr prior to testing. A 2.5% H2O2 solution was prepared fresh by dilution with normal saline and chilled at 2-8° C. before use. Each RBC suspension containing the test compound was split into tubes A and B. 250 μL of the chilled H2O2 solution was added to 250 μL of RBC suspension in each tube while maintaining the tubes in an ice bath. The tubes were incubated at 37° C. for 4 hr, and then 4.5 mL of saline or de-ionized water was added to tube A or tube B, respectively. After the tubes were incubated for 10 min, the mixture in the tubes was centrifuged at 1800 g, and then absorbance was measured in the supernatant at 540 nm. The percentage of hemolysis was calculated as: […]

RBC hemoglobin = assay: H2O2-induced oxidative changes of RBC hemoglobin in vitro (spectral scans); format: cell-based, human
Description: A 4 M stock solution of sodium azide was prepared. One mL of the 4 M stock azide solution was diluted with 9 mL of phosphate-buffered saline (PBS, pH 7.4) to obtain a 0.4 M stock solution, which was further diluted with PBS to obtain a 0.01 M working solution of sodium azide. Eight mL of whole blood was collected in buffered acid citrate dextrose tubes from a healthy human donor. PBS was added to 500 μL of whole blood. The samples were centrifuged, and then the supernatant from each tube was discarded to obtain a red blood cell (RBC) pellet. Ten μL of 0.01 M sodium azide working solution was added to 20 μL of RBC suspension. Twenty μL of hydrogen peroxide (H2O2) diluted in PBS was added to the RBC suspension to obtain final concentrations of H2O2 ranging from 0.01 mM to 100 mM. The samples were incubated at 37° C. for 1.5 hr. 950 μL of de-ionized water was added to the samples, which were then incubated for 10 min to lyse the RBCs and obtain hemoglobin upon centrifugation at 1,500 g. Spectral scans of the lysed samples between 200 nm and 1100 nm were obtained in 2 nm increments, using a Systronics® dual-beam UV-spectrophotometer and de-ionized water as a blank. Samples incubated with PBS at 37° C. for 1-1.5 hr were used as controls to establish the oxidative effects of H2O2 on RBC hemoglobin. Absorbance at 576 nm is a measure of hemoglobin concentration in a sample, and oxidation of hemoglobin to methemoglobin results in a drop in absorbance at 576 nm and an increase in absorbance at 630 nm. Fantao et al., Anal. Biochem., 521:11-19, (2017). Stock solutions of NRH (29.6 mM) and NR (18.3 mM) were prepared in 0.9% normal saline. Appropriate quantities of the stock NRH or NR solution and PBS were added to 500 μL of whole blood to obtain final concentrations of NRH or NR ranging from 1 μM to 1000 μM. The whole blood samples with NRH or NR were mixed gently and incubated at 37° C. for 1-1.5 hr. The samples were centrifuged, and then the supernatant was discarded to obtain an RBC pellet for each sample.

CD4^+ T cells [3] = assay: Mitochondrial membrane depolarization (JC-1, flow cytometry) in CD4+ T cells; format: cell-based, human; conditions: 250 μM, 24 hr, unstimulated or stimulated with anti-CD3 and anti-CD28 antibodies
Description: (§1) PBMCs (10^6 cells per test group) obtained from healthy human adult donors were unstimulated or stimulated with anti-CD3 and anti-CD28 antibodies to induce T-cell activation, in the absence or presence of 250 μM of NRH or NRH-triacetate (NRHTA). Measurements were made at 5, 15 and 24 hr after treatment.
(§2) After the indicated time of incubation, the PBMCs were stained with anti-CD3, anti-CD4 and anti-CD8 antibodies (Biolegend), JC-1 (1 μM, Thermo Fisher) and annexin V (Thermo Fisher) prior to analysis by flow cytometry. Annexin V binds to cell-surface phosphatidylserine, which is a marker for different forms of cell death including apoptosis and necrosis. The stained cells were re-suspended in phosphate-buffered saline (PBS) and acquired in a Cytek Aurora flow cytometer using a FlowJo software (v10) for analysis. About 200,000-300,000 cells were acquired in the flow cytometer for analysis. Standard procedures for spectral compensation were performed to obtain cell populations. Lymphocytes identified by forward and side scatter were gated to obtain CD3^+/CD4^+ and CD3^+/CD8^+ T-cell populations. Those T-cell populations were gated to identify the red and green signals for JC-1 aggregate and monomer, respectively, and annexin V. The percentage of cells staining green by JC-1 monomer was used to determine the percentage of cells with depolarized mitochondria. […]

CD4^+ T cells [4] = assay: Cell death including apoptosis (annexin V, flow cytometry) of CD4+ T cells with depolarized mitochondria; format: cell-based, human; conditions: 250 μM, 24 hr, unstimulated or stimulated with anti-CD3 and anti-CD28 antibodies
Description: as §1, §2

CD8^+ T cells [5] = assay: Mitochondrial membrane depolarization (JC-1, flow cytometry) in CD8+ T cells; format: cell-based, human; conditions: 250 μM, 24 hr, unstimulated or stimulated with anti-CD3 and anti-CD28 antibodies
Description: as §1, §2

CD8^+ T cells [6] = assay: Cell death including apoptosis (annexin V, flow cytometry) of CD8+ T cells with depolarized mitochondria; format: cell-based, human; conditions: 250 μM, 24 hr, unstimulated or stimulated with anti-CD3 and anti-CD28 antibodies
Description: as §1, §2

CD4^+ T cells [7] = assay: Ex vivo polyclonal immune activation model: cytokine production in CD4+ T cells; format: cell-based, human; conditions: stimulated with anti-CD3 and anti-CD28 antibodies; data not shown
Description: (§3) Heparinized venous blood was collected from healthy human adult donors. Peripheral blood mononuclear cells (PBMCs) were isolated by Ficoll-Hypaque density-gradient centrifugation. PBMCs (1.0×10^6) were seeded in round-bottom, 96-well plates in 200 μL of medium, unstimulated or stimulated with an anti-CD3 antibody ([…], clone-HIT3a, Biolegend) plus an anti-CD28 antibody (1 μg/mL, clone-CD28.2, Biolegend) to induce T-cell activation, and incubated in cell-culture medium. The PBMCs were unstimulated or stimulated with anti-CD3 and anti-CD28 antibodies to induce T-cell activation, in the absence or presence of 250 μM NRH. After 18 hours of incubation, lymphocytes were analyzed for intracellular levels of IFN-γ, TNF-α and IL-2 by flow cytometry. Intracellular cytokine production was stopped by treating the cells with Golgi stop after 1 hr of treatment.

CD8^+ T cells [8] = assay: Ex vivo polyclonal immune activation model: intracellular cytokine production in CD8+ T cells (flow cytometry); format: cell-based, human; conditions: stimulated with anti-CD3 and anti-CD28 antibodies; data not shown
Description: as §3

Compound	extracellular acidification rate (ECAR, a measure of glycolysis) in activated PBMCs [1]	compound remaining intact in human serum within 5 min ([2]; within 5 min of addition, absorbance at 265 nm)	NADH/NAD+ ratio in HEK293 cells exposed to H2O2 (HEK293 cells; 30 min of incubation)	NADH/NAD+ ratio in HEK293 cells exposed to H2O2 (HEK293 cells; 6 hr of incubation)	H2O2-induced hemolysis (red blood cells (RBCs))	A576/A630 ratio (a measure of the hemoglobin/methemoglobin ratio) (RBC hemoglobin; RBCs exposed to 1 mM H2O2, 1 μM or 100 μM NRH, NR data not shown)	protection of hemoglobin from 1 mM H2O2-induced oxidative changes (amplitude of absorbance peaks at 576, 540, 434, 348 and 270 nm) (RBC hemoglobin; pre-incubation of RBCs with 1, 10 and 100 µM)	mitochondrial membrane depolarization in CD4+ T cells (CD4^+ T cells [3])	cell death including apoptosis of CD4+ T cells with depolarized mitochondria (CD4^+ T cells [4])	mitochondrial membrane depolarization in CD8+ T cells (CD8^+ T cells [5])	compound remaining intact in human serum after 6 hr ([2]; 6 hr)	compound remaining intact in human serum after 24 hr ([2]; 24 hr)	stability in human serum compared with NR ([2]; up to 24 hr, p<0.05)	cell death including apoptosis of CD8+ T cells with depolarized mitochondria (CD8^+ T cells [6])	production of pro-inflammatory cytokines (e.g., TNF-α, IL-2, IFN-γ) by CD4+ T cells (CD4^+ T cells [7])	production of pro-inflammatory cytokines (e.g., TNF-α, IL-2, IFN-γ) by CD8+ T cells (CD8^+ T cells [8])
NC(=O)c1ccc[n+]([C@@H]2O[C@H](CO)[C@@H](O)[C@H]2O)c1 [NR, nicotinamide riboside, reference compound]	Unlike NR (data not shown), NRH reduced glycolysis	most of NR did not remain intact	did not significantly affect	did not significantly affect	neither NR (MP-02) nor NR-triacetate (MP-39) at any concentration tested, reduced H2O2-induced hemolysis	did not significantly affect	not with NR (MP02), protected hemoglobin									
CC(=O)OC[C@H]1O[C@@H]([n+]2cccc(C(N)=O)c2)[C@H](OC(C)=O)[C@@H]1OC(C)=O.O=S(=O)([O-])C(F)(F)F [NR-triacetate, 3-Carboxamide-N-(2,3,5-tri-O-acetyl-β-D-ribofuranosyl)pyridinium Triflate, reference compound]					neither NR (MP-02) nor NR-triacetate (MP-39) at any concentration tested, reduced H2O2-induced hemolysis											
CC(=O)OC[C@H]1O[C@@H](N2C=CCC(C(N)=O)=C2)[C@H](OC(C)=O)[C@@H]1OC(C)=O [NRH-triacetate, N-(2,3,5-tri-O-acetyl-β-D-ribofuranosyl)dihydronicotinamide]					reduced H2O2-induced hemolysis			significantly induced	reduced cell death	significantly induced	Most of both NRH and NRH-triacetate remained intact	about 50%	much more stable	reduced cell death	reduced production of pro-inflammatory cytokines	reduced production of pro-inflammatory cytokines
